Reference: PMC6248945, “Antibacterial properties of the pituitary adenylate cyclase-activating polypeptide: A new human antimicrobial peptide” (PLoS ONE, 2018)
Converted amounts (≈) assume the structure as drawn. Where a SMILES comes first, the peptide text is derived from it. [ ]: non-standard residue; d: D form. Tic = O=C(O)[C@@H]1Cc2ccccc2CN1

Columns and labels:
[1] = tested on: Actinobacillus pleuropneumoniae (4074); settings: 20 h
[2] = tested on: Pseudomonas aeruginosa (PA14); settings: PA14, 20 h
[3] = tested on: Burkholderia thailendensis (ATCC700388); settings: CLSI microdilution, MHB, 37 °C, 20h, OD read-out; at least triplicate
[4] = tested on: Pseudomonas putida (KT2440); settings: 20 h
[5] = tested on: Burkholderia cenocepacia (K56-2); settings: 20 h
[6] = tested on: Burkholderia cenocepacia (LMG18829); settings: LMG18829, 20 h
[7] = tested on: Bacillus circulans (LSPQ3543); settings: 20 h
[8] = tested on: Bacillus amyloliquefaciens (LMG22478); settings: LMG22478, 20 h
Bacillus subtilis (PY79) = settings: PY79, 20 h
[9] = relative to PACAP38; cited from earlier work
[10] = tested on: Burkholderia cenocepacia (CEP0511 Gvar3b); settings: CLSI microdilution, MHB, 37 °C, 20h, OD read-out; at least triplicate
Bacillus subtilis (2597) = settings: 2597, 20 h
Escherichia coli (JM109) = assay: MIC, CLSI microdilution; type: cell-based; settings: MHB, 37 °C, 20h, OD read-out, at least triplicate
Protocol: Assays were performed according to the CLSI microdilution method. Briefly, the bacterial strains were inoculated and allowed to reach an OD600 of 0.08–0.13 prior to dilution to 10^6 CFU/mL in Mueller-Hinton broth (MHB). A bacterial suspension (50 μL) was then added to each well of a 96-well microplate containing serially diluted peptide solutions (50 μL in MHB) and incubated at 37 °C for 20h. A well containing sterilized medium was used as a sterility control and another well containing no added peptide served as a growth control.

[11] = tested on: Burkholderia cenocepacia (J2315); settings: 20 h
[12] = tested on: Pseudomonas aeruginosa (ATCC33350-Sero-2); settings: ATCC33350, 20 h
[13] = tested on: Staphylococcus aureus (Newman); settings: 20 h
[14] = tested on: Escherichia coli (O157 :H7); settings: CLSI microdilution, MHB, 37 °C, 20h, OD read-out; at least triplicate
[15] = tested on: Pseudomonas fluorescens (MF37); settings: 20 h
[16] = tested on: Staphylococcus aureus (ATCC6538#P); settings: ATCC6538, 20 h
DPP-IV = tested on: DPP-IV; set-up: method as in PMID 18353507; settings: cited from earlier work
[17] = tested on: Bacillus cereus (ATCC11778); settings: ATCC11778, 20 h
[18] = tested on: Burkholderia cenocepacia (LMG19240); settings: CLSI microdilution, MHB, 37 °C, 20h, OD read-out; at least triplicate
[19] = tested on: Serratia marcescens (ATCC14756); settings: ATCC14756, 20 h
[20] = tested on: Escherichia coli ATCC25922; settings: ATCC25922, 20 h
Bacillus velezensis = settings: 20 h

Structure (SMILES)	MIC, Actinobacillus pleuropneumoniae [1]	MIC, Pseudomonas aeruginosa (PA14) [2]	MIC, Burkholderia thailendensis (ATCC700388) [3]	MIC, Pseudomonas putida (KT2440) [4]	MIC, Burkholderia cenocepacia (K56-2) [5]	MIC, Burkholderia cenocepacia (LMG18829) [6]	MIC, Bacillus circulans (LSPQ3543) [7]	MIC, Bacillus amyloliquefaciens [8]	MIC, Bacillus subtilis (PY79) (Bacillus subtilis (PY79))	MIC, Burkholderia cenocepacia (CEP0511 Gvar3b) [10]	MIC, Bacillus subtilis (2597) (Bacillus subtilis (2597))	MIC, Escherichia coli (JM109) (Escherichia coli (JM109))	MIC, Burkholderia cenocepacia (J2315) [11]	MIC, Pseudomonas aeruginosa (ATCC33350-Sero-2) [12]	MIC, Staphylococcus aureus (Newman) [13]	MIC, Escherichia coli (O157 :H7) [14]	MIC, Pseudomonas fluorescens (MF37) [15]	MIC, Staphylococcus aureus (ATCC6538#P) [16]	MIC, Bacillus cereus (ATCC11778) [17]	MIC, Burkholderia cenocepacia (LMG19240) [18]	other results
CCCCCC(=O)N[C@@H](Cc1c[nH]cn1)C(=O)N[C@@H](CO)C(=O)N[C@@H](CC(=O)O)C(=O)NCC(=O)N[C@H](C(=O)N[C@@H](Cc1ccccc1)C(=O)N[C@H](C(=O)N[C@@H](CC(=O)O)C(=O)N[C@@H](CO)C(=O)N[C@@H](Cc1ccc(O)cc1)C(=O)N[C@@H](CO)C(=O)N[C@@H](CCCNC(=N)N)C(=O)N[C@@H](Cc1ccc(O)cc1)C(=O)N[C@@H](CCCNC(=N)N)C(=O)N[C@@H](CCCCN)C(=O)N[C@@H](CCC(N)=O)C(=O)N[C@@H](CCSC)C(=O)N[C@@H](C)C(=O)N[C@H](C(=O)N[C@@H](CCCCN)C(=O)N[C@@H](CCCCN)C(=O)N[C@@H](Cc1ccc(O)cc1)C(=O)N[C@@H](CC(C)C)C(=O)N[C@@H](C)C(=O)N[C@@H](C)C(=O)N[C@H](C(=O)N[C@@H](CC(C)C)C(=O)NCC(=O)N[C@@H](CCCCN)C(=O)N[C@@H](CCCNC(=N)N)C(=O)N[C@@H](Cc1ccc(O)cc1)C(=O)N[C@@H](CCCCN)C(=O)N[C@@H](CCC(N)=O)C(=O)N[C@@H](CCCNC(=N)N)C(=O)N[C@H](C(=O)N[C@@H](CCCCN)C(=O)N[C@@H](CC(N)=O)C(=O)N[C@@H](CCCCN)C(N)=O)C(C)C)C(C)C)C(C)C)[C@@H](C)O)[C@@H](C)CC [compound 2, N-hexanoyl-PACAP38]	232 µg/mL (≈ 50.1 µM)	>200 µg/mL	>200 µg/mL	77 µg/mL (≈ 16.6 µM)	>200 µg/mL	>200 µg/mL	58 µg/mL (≈ 12.5 µM)	26 µg/mL (≈ 5.61 µM)	12 µg/mL (≈ 2.59 µM)	>200 µg/mL	154 µg/mL (≈ 33.2 µM)	116 µg/mL (≈ 25 µM)	10 µg/mL (≈ 2.16 µM)	>200 µg/mL	>200 µg/mL	>200 µg/mL	>200 µg/mL	>200 µg/mL	>200 µg/mL	>200 µg/mL	Metabolic stability in human plasma [9]: improved metabolic stability; Metabolic stability against DPP-IV (DPP-IV): improved metabolic stability; MIC, Serratia marcescens (ATCC14756) [19]: >200 µg/mL; MIC, Escherichia coli ATCC25922 [20]: >200 µg/mL; MIC, Bacillus velezensis (Bacillus velezensis): 87 µg/mL (≈ 18.8 µM)
CC[C@H](C)[C@H](NC(=O)CNC(=O)[C@H](CC(=O)O)NC(=O)[C@H](CO)NC(=O)[C@@H](N)Cc1c[nH]cn1)C(=O)N1Cc2ccccc2C[C@H]1C(=O)N[C@H](C(=O)N[C@@H](CC(=O)O)C(=O)N[C@@H](CO)C(=O)N[C@@H](Cc1ccc(O)cc1)C(=O)N[C@@H](CO)C(=O)N[C@@H](CCCNC(=N)N)C(=O)N[C@@H](Cc1ccc(O)cc1)C(=O)N[C@@H](CCCNC(=N)N)C(=O)N[C@@H](CCCCN)C(=O)N[C@@H](CCC(N)=O)C(=O)N[C@@H](CCSC)C(=O)N[C@@H](C)C(=O)N[C@H](C(=O)N[C@@H](CCCCN)C(=O)N[C@@H](CCCCN)C(=O)N[C@@H](Cc1ccc(O)cc1)C(=O)N[C@@H](CC(C)C)C(=O)N[C@@H](C)C(=O)N[C@@H](C)C(=O)N[C@H](C(=O)N[C@@H](CC(C)C)C(=O)NCC(=O)N[C@@H](CCCCN)C(=O)N[C@@H](CCCNC(=N)N)C(=O)N[C@@H](Cc1ccc(O)cc1)C(=O)N[C@@H](CCCCN)C(=O)N[C@@H](CCC(N)=O)C(=O)N[C@@H](CCCNC(=N)N)C(=O)N[C@H](C(=O)N[C@@H](CCCCN)C(=O)N[C@@H](CC(N)=O)C(=O)N[C@@H](CCCCN)C(N)=O)C(C)C)C(C)C)C(C)C)[C@@H](C)O [compound 7, [Tic^6]PACAP38] (H-HSDGI[Tic]TDSYSRYRKQMAVKKYLAAVLGKRYKQRVKNK-NH2)	>200 µg/mL	>200 µg/mL	>200 µg/mL	33 µg/mL (≈ 7.26 µM)	>200 µg/mL	>200 µg/mL	6 µg/mL (≈ 1.32 µM)	21 µg/mL (≈ 4.62 µM)	7 µg/mL (≈ 1.54 µM)	>200 µg/mL	>200 µg/mL	>200 µg/mL	2 µg/mL (≈ 0.44 µM)	>200 µg/mL	>200 µg/mL	>200 µg/mL	>200 µg/mL	>200 µg/mL	>200 µg/mL	>200 µg/mL	MIC, Serratia marcescens (ATCC14756) [19]: >200 µg/mL; MIC, Escherichia coli ATCC25922 [20]: >200 µg/mL; MIC, Bacillus velezensis (Bacillus velezensis): 71 µg/mL (≈ 15.6 µM)
CSCC[C@H](NC(=O)[C@H](CCC(N)=O)NC(=O)[C@H](CCCCN)NC(=O)[C@H](CCCNC(=N)N)NC(=O)[C@H](Cc1ccc(O)cc1)NC(=O)[C@H](CCCNC(=N)N)NC(=O)[C@H](CO)NC(=O)[C@H](Cc1ccc(O)cc1)NC(=O)[C@@H](N)CO)C(=O)N[C@@H](C)C(=O)N[C@H](C(=O)N[C@@H](CCCCN)C(=O)N[C@@H](CCCCN)C(=O)N[C@@H](Cc1ccc(O)cc1)C(=O)N[C@@H](CC(C)C)C(=O)N[C@@H](C)C(=O)N[C@@H](C)C(=O)N[C@H](C(=O)N[C@@H](CC(C)C)C(=O)NCC(=O)N[C@@H](CCCCN)C(=O)N[C@@H](CCCNC(=N)N)C(=O)N[C@@H](Cc1ccc(O)cc1)C(=O)N[C@@H](CCCCN)C(=O)N[C@@H](CCC(N)=O)C(=O)N[C@@H](CCCNC(=N)N)C(=O)N[C@H](C(=O)N[C@@H](CCCCN)C(=O)N[C@@H](CC(N)=O)C(=O)N[C@@H](CCCCN)C(N)=O)C(C)C)C(C)C)C(C)C [compound 10, PACAP(9–38)] (H-SYSRYRKQMAVKKYLAAVLGKRYKQRVKNK-NH2)	>183 µg/mL			>183 µg/mL	>183 µg/mL			>183 µg/mL	>183 µg/mL		>183 µg/mL	>183 µg/mL	19 µg/mL (≈ 5.19 µM)								
